Experimental findings from patent publication US20040097566A1, “2-Substituted thiazolidinone and oxazolidinone derivatives for the inhibition of phosphatases and the treatment of cancer” (priority 2001, published 2004) are described below.

In data set [1] the test system is prostate cancer cell line PC-3. Put plainly: MTT assay, human prostate cancer cells. Particulars: concentrations in the range of 10^−7-10^−5 M or higher, FIGS. 2, 16. The data set is classed as cell-based. The source says:
(§1) The anti-cancer activity of some of the compounds described herein have been tested in one type of such in vitro assay, as described in the examples herein, using a microculture assay with 3-(4,5-dimethylthiazol-2-yl)-2,5-diphenyltetrazolium bromide (“MTT”). This assay has an advantage over in vivo assay in that results are obtained within a week as opposed to several months. The assay can be carried out in 96-well microtiter plates. The MTT assay is based on the production of a dark blue formazan product by dehydrogenase in the mitochondria of live tumor cells after exposure to drug for 6 days [M. C. Alley, D. A. Scudiero, A. Monks, M. L. Hursey, M. J. Czerwinski, D. L. Fine, B. J. Abbout, J. G. Mayo, R. H. Shoemaker and M. R. Boyd, Cancer Res., 48, 589, 1988]. Thus, only live cells are stained and can be measured at 595 nm. Anti-cancer activity can be reported as percent of the tumor cell growth in the presence of compound at a defined dose compared to control/vehicle treated tumor cells. The results of some such screening assays are given in Examples 162a and 162b, and in FIGS. 2, 3, and 15-18.
(§2) The following human cancer cell lines were used to detect anti-cancer activity in the compounds of the invention.
The prostate cancer cell line PC-3 was used to detect […]
(§3) Cell lines were purchased from American Type Culture Collection (ATCC).
(§4) The cancer cell cultures were grown as recommended by the ATTC manuals. A549 cells and BX-PC-3 were grown in DME Dulbecco's modified Eagle's medium containing 4500 mg/L glucose; 4 mM L-glutamine; 10 U/ml Pen-G; 10 mcg/ml […] and 10% fetal calf serum (FCS). PC-3 and MDA-MB468 cells were grown in RPMI medium 1640 containing 2 mM L-glutamine; 10 U/ml Pen-G; 10 mcg/ml Streptomycin and 10% FCS. Cells were kept at 6% CO2 and 37° C. Cells were seeded on day zero in 96-well format tissue culture plates at suitable densities the day before starting treatment, in the media indicated above.
(§5) On day one, the compounds of the invention were added to the culture media of growing cells, containing 10% FCS. The cell media contained the compounds of the invention at one of six concentrations: […], 5×10^−8, 1×10^−7, 5×10^−7, 1×10^−6, and 1×10^−5M. 0.1% DMSO was used as vehicle control, and never exceeded 0.1% final concentration. On day four the media was removed and replaced with fresh media containing the compounds of the invention and FCS.
(§6) The assay is based on the cleavage of the yellow tetrazolium salt MTT to purple formazan crystals by dehydrogenase activity in active mitochondria. This conversion only occurs in living cells with intact/functional mitochondria.
(§7) On day five 10 μl of 5 mg/ml MTT dye are added to each well containing a cell culture. Cells are incubated for additional 4 hours at 6% CO2 and 37° C. Reaction is then stopped by adding 100 μl/well of a solubilization solution consisting of 10% Sodium Dodecyl Sulfate (SDS) and 10 mM HCl On day 6 the formazan crystals formed are solubilized and the resulting colored solution is quantified using a scanning multiwell spectrophotometer at a wavelength of 595 nm.

The test system of data set [2] is non-small-cell lung cancer cell line A549. Put plainly: MTT assay, human non-small-cell lung cancer cells. The data set is classed as cell-based. To be noted: concentrations in the range of 10^−7-10^−5 M or higher, FIGS. 3, 15.
From the text: as §1, §2
The non-small-cell lung cancer cell line A549 was used to detect anti-lung cancer activity
as §3, §4, §5, §6, §7
For orientation: Formazan colour is commonly taken as a measure of viable cells.

The subject of data set [3] is pancreatic cancer cell line BX-PC-3. Put plainly: MTT assay, human pancreatic cancer cells. To be noted: concentrations in the range of 10^−7-10^−5 M or higher, FIGS. 3, 18. The class given is cell-based.
From the text: as §1, §2
The pancreatic cancer cell line BX-PC-3 was used to detect anti-pancreatic cancer activity.
as §3, §4, §5, §6, §7

Data set [4] deals with breast cancer cell line MDA-MB468. Put plainly: MTT assay, human breast cancer cells. The data set is classed as cell-based. Particulars: concentrations in the range of 10^−7-10^−5 M or higher, FIGS. 2, 17.
From the text: as §1, §2
The breast cancer cell line MDA-MB468 served to detect anti-breast cancer activity.
as §3, §4, §5, §6, §7

A further data set has as its system tumor cells (PC3). Briefly: Solid prostate cancer tumors in athymic nude mice, intraperitoneal treatment. The data set is classed as in vivo. To be noted: PC3 s.c. in athymic nude mice; i.p. every other day; compound 43 20mg/kg, compound 81 20mg/kg and 60mg/kg; FIGS. 20, 21. The method, then: (§8) Four to six week-old male athymic nude mice (Harlan) were housed under sterile conditions in a fixed 12-12-hr artificial light-dark cycle, and maintained on a standard rodent diet provided ad libitum. Animals were allowed two days to acclimate in this experimental environment prior to the initiation of the study.
(§9) Groups of animals were injected subcutaneously with tumor cells (H460 or PC3). Prior to the injection, the sterile tumor cells were at a logarithmic growth phase and were washed twice with PBS, counted and resuspended in sterile saline at 5-50 million cells per ml. As soon as solid tumors were discernible, the animals were sorted into treatment groups with equal average tumor volume. Animals were treated every other day intraperitoneally with a final volume of 5 ml/kg. Tumor volume was measured once a week for the duration of the study.
Experiment I: Treatment of solid prostate cancer tumors
Study 1—Treatment groups(n=6/group):

For a further data set, the system named is tumor cells (H460). Put plainly: Solid non-small-cell lung cancer tumors in athymic nude mice, intraperitoneal treatment. The data set is classed as in vivo. Particulars: H460 s.c. in athymic nude mice, i.p. every other day, compound 81 20mg/kg, FIG. 22. The procedure: as §8, §9
Experiment II: Treatment of solid non-small-cell lung cancer tumors

Molecules are shown by their SMILES. “Also recorded” adds a separate entry of the source.

As for `O=C1N=C(N2CCOCC2)S/C1=C\c1cccc(-c2cc(F)c(O)c(C34CC5CC(CC(C5)C3)C4)c2)c1` [Compound 1, 5-[3-(3-Adamantan-1-yl-4-hydroxy-5-fluoro-phenyl)benzylidene]-2-morpholin-4-yl-thiazol-4-one], the melting point (as a rule, the temperature of the solid-liquid transition) was 293 to 295 °C. Also, the “anticancer cell activity / killing of prostate cancer cells” value in data set [1] was “kill significant percentages of the cells; also recorded: strong anticancer cell activity”. In addition, in data set [2], the “anticancer cell activity / killing of non-small-cell lung cancer cells” value is on record as “kill significant percentages of the cells; also recorded: strong anticancer all activity”. The “anticancer cell activity / killing of pancreatic cancer cells” value in data set [3] was “kill significant percentages of the cells; also recorded: strong anticancer all activity”. In addition, the “anticancer cell activity / killing of breast cancer cells” value in data set [4] is “kill significant percentages of the cells; also recorded: strong anticancer cell activity”.

On to `O=C1N=C(N2CCOCC2)SC1Cc1cccc(-c2cc(F)c(O)c(C34CC5CC(CC(C5)C3)C4)c2)c1` (stereo not shown) [Compound 43, 5-[3-(3-Adamantan-1-yl-4-hydroxy-5-fluoro-phenyl)benzyl]-2-morpholin-4-yl-thiazol-4-one], for which the melting point was 227 to 229 °C. Besides, in data set [1], the “anticancer cell activity / killing of prostate cancer cells” value was “kill significant percentages of the cells; also recorded: strong anticancer cell activity”. Besides, in data set [2], the “anticancer cell activity / killing of non-small-cell lung cancer cells” value was “kill significant percentages of the cells; also recorded: strong anticancer all activity”. The “growth of solid human prostate cancer tumors” value with tumor cells (PC3) is recorded as “significantly retarded the growth; also recorded: significantly slowed the growth”. Further, in data set [3], the “anticancer cell activity / killing of pancreatic cancer cells” value is listed as “kill significant percentages of the cells; also recorded: strong anticancer all activity”. In data set [4], the “anticancer cell activity / killing of breast cancer cells” value was “kill significant percentages of the cells; also recorded: strong anticancer cell activity”.

In turn, `O=C1N=C(N2CCCC2)SC1Cc1cccc(-c2cc(F)c(O)c(C34CC5CC(CC(C5)C3)C4)c2)c1` (stereo not shown) [Compound 81] had a melting point of 152 to 154 °C. Besides, the “anticancer cell activity / killing of prostate cancer cells” value in data set [1] is reported as “kill significant percentages of the cells”. Also, the “growth of non-small cell lung cancer tumors” value in the data set with tumor cells (H460) is reported as “significantly retarded the growth; also recorded: significantly slowed the growth”. Further, the “anticancer cell activity / killing of non-small-cell lung cancer cells” value in data set [2] is listed as “kill significant percentages of the cells”. Also, the “growth of solid human prostate cancer tumors” value in the data set with tumor cells (PC3) was “significantly retarded the growth; also recorded: significantly slowed the growth”. Besides, the “anticancer cell activity / killing of pancreatic cancer cells” value in data set [3] is on record as “kill significant percentages of the cells”. In addition, the “anticancer cell activity / killing of breast cancer cells” value in data set [4] is on record as “kill significant percentages of the cells”.

In turn, `COc1cc(-c2ccc(O)c(C34CC5CC(CC(C5)C3)C4)c2)cc(/C=C2\SC(N3CCOCC3)=NC2=O)c1O` [Compound 84, 5-[3-(3-Adamantan-1-yl-4-hydroxy-phenyl)-5-methoxy-6-hydroxy-benzylidene]-2-morpholin-4-yl-thiazol-4-one] came in with a melting point of 310 to 312 °C. Besides, the “anticancer cell activity / killing of prostate cancer cells” value in data set [1] is recorded as “kill significant percentages of the cells”. For the same compound, the “anticancer cell activity / killing of non-small-cell lung cancer cells” value in data set [2] is on record as “kill significant percentages of the cells”. Besides, in data set [3], the “anticancer cell activity / killing of pancreatic cancer cells” value was “kill significant percentages of the cells”. Also, the “anticancer cell activity / killing of breast cancer cells” value in data set [4] is on record as “kill significant percentages of the cells”.

`O=C1N=C(N2CCOCC2)SC1Cc1cccc(-c2ccc(O)c(C34CC5CC(CC(C5)C3)C4)c2)c1` (stereo not shown) [Compound 135, 5-(3′-Adamantan-1-yl-4′-hydroxy-biphenyl-3-ylmethyl)-2-morpholin-4-yl-thiazol-4-one]: the “anticancer cell activity / killing of prostate cancer cells” value in data set [1] is “kill significant percentages of the cells”. Moreover, in data set [2], the “anticancer cell activity / killing of non-small-cell lung cancer cells” value was “kill significant percentages of the cells”. Moreover, the “anticancer cell activity / killing of pancreatic cancer cells” value in data set [3] is “kill significant percentages of the cells”. Besides, the “anticancer cell activity / killing of breast cancer cells” value in data set [4] is listed as “kill significant percentages of the cells”.

The compound `CCC(C)(C)c1cc(-c2cccc(CC3SC(N4CCOCC4)=NC3=O)c2)ccc1O` (stereo not shown) [Compound 151, 5-[3′-(1,1-Dimethyl-propyl)-4′-hydroxy-biphenyl-3-ylmethyl]-2-morpholin-4-yl-thiazol-4-one] displayed a melting point of 74 to 77 °C. Further, the “anticancer cell activity / killing of prostate cancer cells” value in data set [1] is reported as “kill significant percentages of the cells”. The “anticancer cell activity / killing of non-small-cell lung cancer cells” value in data set [2] was “kill significant percentages of the cells”. For the same compound, in data set [3], the “anticancer cell activity / killing of pancreatic cancer cells” value is “kill significant percentages of the cells”. Further, in data set [4], the “anticancer cell activity / killing of breast cancer cells” value was “kill significant percentages of the cells”.

For the compound `CCC(C)(C)c1cc(-c2ccc(F)c(/C=C3\SC(N4CCOCC4)=NC3=O)c2)ccc1O` [Compound 152, 5-[3′-(1,1-Dimethyl-propyl)-4-fluoro-4′-hydroxy-biphenyl-3-ylmethylene]-2-morpholin-4-yl-thiazol-4one], the “anticancer cell activity / killing of prostate cancer cells” value in data set [1] is recorded as “kill significant percentages of the cells”. Moreover, the “anticancer cell activity / killing of non-small-cell lung cancer cells” value in data set [2] is on record as “kill significant percentages of the cells”. Moreover, in data set [3], the “anticancer cell activity / killing of pancreatic cancer cells” value is “kill significant percentages of the cells”. The “anticancer cell activity / killing of breast cancer cells” value in data set [4] is “kill significant percentages of the cells”.

For the compound `CCC(C)(C)c1cc(-c2cccc(CC3SC(N4CCOCC4)=NC3=O)n2)ccc1O` (stereo not shown) [Compound 155, 5-{6-[3-(1,1-Dimethyl-propyl)-4-hydroxy-phenyl]-pyridin-2ylmethyl}--2-morpholin-4-yl-thiazol-4-one], the “anticancer cell activity / killing of prostate cancer cells” value in data set [1] is reported as “kill significant percentages of the cells”. The “anticancer cell activity / killing of non-small-cell lung cancer cells” value in data set [2] is “kill significant percentages of the cells”. In addition, the “anticancer cell activity / killing of pancreatic cancer cells” value in data set [3] is listed as “kill significant percentages of the cells”. In addition, the “anticancer cell activity / killing of breast cancer cells” value in data set [4] is “kill significant percentages of the cells”.
